Patent US11389449B2, “Treatment of metabolic syndrome with an sGC stimulator” (Cyclerion Therapeutics, Inc., priority 2017, dated 2022)

Assays:
[1] = tested on: ZSF1 obese rats; assay: Oral glucose tolerance test (OGTT) and fasting glucose in ZSF1 rats at week 10; assay type: in vivo, rat
Description: Male ZSF1 rats (body weight 400-430 grams (lean control) and 500-605 grams (obese) at baseline) were used for this study. All animals were housed in a room under controlled conditions of temperature (72±8° F.), relative humidity of 30-70% and a 12-hour light-dark cycle (lights on at 6:00 AM and off at 6:00 PM) at a fully AAALAC accredited, USDA registered and OLAW assured laboratory animal research facility. All animals were allowed free access to rodent chow (Purina 5008+/−test articles) and water (+/−enalapril).
(§1) Blood and 24-hour urine samples were obtained from all animals at day 0 (15 weeks of age; prior to the initiation of enalapril treatment). Animals in Groups 3, 7, 8 and 9 were placed on drinking water containing enalapril and kept on Purina 5008 rodent chow (C13000). Animals in Group 1, 2, 4, 5 and 6 were kept on Purina 5008 rodent chow and drinking water. Ten days after the initiation of enalapril treatment, blood and 24-hour urine samples were collected from all animals. After day 10 blood and urine collections, animals in Groups 4, 5 and 6 received Compound I at 1, 3 and 10 mg/kg/day, respectively for 11 weeks. In addition to enalapril treatment, animals in Groups 7, 8 and 9 received Compound I at 1, 3 and 10 mg/kg/day, respectively for an additional 11 weeks.
(§2) 10 weeks after the initiation of Compound I treatment, animals (27 weeks of age) were fasted for 18 hours. Serum samples were collected for the measurement of fasting insulin levels. Serum insulin levels were determined using the Rat Insulin ELISA kit (Cat #ELR-Insulin, RayBiotech, Inc.)
For OGTT, animals were given glucose solution (50% Dextrose) at 2 g/kg via oral gavage. Blood samples were collected prior to oral glucose administration (0 minute) and 30, 60, 90, 120 and 180 minutes after administration. Blood glucose levels were measured using a standard blood glucose monitoring system (AlphaTRAK). The blood glucose reading at time 0 (prior to glucose administration) corresponds to the fasting glucose measurement.
(§3) The data are expressed as mean±SEM. […] One-tailed tests were used for comparison of variables. Statistical significance is indicated by P values less than 0.05.

[2] = tested on: ZSF1 obese rats; assay: Fasting serum insulin in ZSF1 rats (Rat Insulin ELISA); assay type: in vivo
Excerpt: as §1, §2, §3

[3] = tested on: ZSF1 obese rats; assay: ZSF1 rat study: serum clinical chemistry (cholesterol, triglycerides), body weight, clinical observations; assay type: in vivo
Excerpt: as §1
Body weight and 24-hour water intake were obtained at least once every other week. 24-hour food intake was measured at baseline and week 8.
Plasma (for biomarker) and serum (for clinical chemistry analysis) samples were collected from all treatment groups at baseline, day 10, weeks 5 and 9 prior to placing the animals into the metabolic cages. Plasma samples were obtained from Groups 3-9 for measurement of compound exposure levels at weeks 5 and 11. Terminal plasma and serum samples were obtained at necropsy.
For serum samples, blood was collected in serum separator tubes, maintained at room temperature for at least 30 minutes and then centrifuged at 6000 rpm for 10 minutes. Serum samples were stored at −80° C. until analysis. Urine and serum samples were analyzed using the Randox Daytona Clinical Chemistry Analyzer. All measurements were performed in accordance with manufacturer's instructions.
Animal #8 (in Group 3, ZSF1—enalapril 3 mg/kg/day) was found dead 3 days after the initiation of enalapril treatment.

[4] = tested on: obese/high fat diet C57Bl/6J mice; assay: Diet induced obesity (DIO) mouse model: body weight and food intake; assay type: in vivo; conditions: DIO HFD mice, approx 6 mg/kg in diet
Excerpt: (§4) The objective of this animal study was to evaluate the effects of Compound I in the mouse diet induced obesity (DIO) model. Assessments included body weight, food intake, oral glucose tolerance test (OGTT) and fasting plasma biomarkers of metabolic control.
(§5) Male C57Bl/6J mice with baseline body weights of 25.0-29.0 grams (lean controls) and 31.5-45.0 grams (obese/high fat diet treated) respectively, were used for this study. The lean mice (n=8) were maintained on a standard chow diet. The obese mice were given 60% high fat diet (HFD) starting at 6 weeks of age. All animals were allowed free access to drinking water and chow. The study was begun when the mice were 12 weeks of age and concluded after 4 weeks (16 weeks of age). The obese control group (n=8 mice) was maintained on HFD. The Compound I group (n=8 obese mice) was treated with HFD containing 90 mg Compound I/kg (an approximate dose of 6 mg/kg). Body weights were determined twice weekly and food intake was measured daily for 28 days. An OGTT was performed on each animal at day 28 or 29 and the animals were sacrificed on the following day. On the terminal day, 3 hour fasted blood was collected for compound concentrations and plasma biomarkers analysis including glucose, insulin and triglycerides. Organs were collected, weighed and snap frozen in liquid nitrogen for further analysis.

[5] = tested on: obese/high fat diet C57Bl/6J mice; assay: DIO mouse model: fasting plasma biomarkers and liver triglycerides; assay type: in vivo; conditions: DIO HFD mice, approx 6 mg/kg in diet
Excerpt: as §4, §5

[6] = obese ZSF1 rats, 3 and 10 mg/kg, compared to placebo and enalapril, not statistically significant

Which results are given for `OC(CNc1nc(-c2cc(-c3ccon3)n(Cc3ccccc3F)n2)ncc1F)(C(F)(F)F)C(F)(F)F` [Compound I]?
Fasting Blood Glucose (0 minute) ([1]; Compound I 1 mpk): 267 ± 38 mg/dL; OGTT Area Under Curve (AUC) ([1]; Compound I 1 mpk): 84945 ± 5344; OGTT Blood Glucose 120 minutes ([1]; Compound I 1 mpk): 475 ± 33 mg/dL; OGTT Blood Glucose 180 minutes ([1]; Compound I 1 mpk): 398 ± 30 mg/dL; Fasting Blood Glucose (0 minute) ([1]; Compound I 3 mpk): 202 ± 10 mg/dL; OGTT Area Under Curve (AUC) ([1]; Compound I 3 mpk): 77402 ± 3526; OGTT Blood Glucose 120 minutes ([1]; Compound I 3 mpk): 424 ± 19 mg/dL; OGTT Blood Glucose 180 minutes ([1]; Compound I 3 mpk): 355 ± 24 mg/dL; Fasting Blood Glucose (0 minute) ([1]; Compound I 10 mpk): 194 ± 9 mg/dL; OGTT Area Under Curve (AUC) ([1]; Compound I 10 mpk): 77090 ± 1817; OGTT Blood Glucose 120 minutes ([1]; Compound I 10 mpk): 421 ± 11 mg/dL; OGTT Blood Glucose 180 minutes ([1]; Compound I 10 mpk): 385 ± 14 mg/dL; Fasting Insulin ([2]; week 10, Compound I 1 mpk): 15.7 ± 3.5 μIU/mL; Fasting Insulin ([2]; week 10, Compound I 3 mpk): 15.6 ± 2.7 μIU/mL; Fasting Insulin ([2]; week 10, Compound I 10 mpk): 11.7 ± 1.6 μIU/mL; reduction of weight ([3]; obese ZSF1 rats): No effects were observed; effect on cholesterol levels [3, 6]: some reduction in cholesterol was observed; effect on triglyceride levels [3, 6]: some reduction in TGs was observed; clinical observation ([3]; rat, in vivo, 1 mg/kg/day): enlarged left kidney's filled with brown fluid consistent with hydronephrosis; body weight gain change vs obese controls ([4]; Day 28, P<0.0001): −37%; increase in food intake vs obese controls ([4]; Day 28, P<0.05): 11%; cumulative food intake vs obese controls ([4]; days 12-14 and 16-28): Significant increases; body weight gain vs obese controls ([4]; from 0.5 weeks for the duration of the study): significant reductions; Fasting plasma glucose ([5]; after 4 weeks): unchanged; plasma insulin change vs obese controls ([5]; after 4 weeks, P<0.01): −53%; plasma triglycerides change vs obese controls ([5]; after 4 weeks, P<0.01): −30%; circulating and liver triglycerides ([5]; compared to obese controls): lowered
